Test results taken from US9358290B2, “Pharmaceutical formulations” (MOREX DEVELOPMENT PARTNERS LLP, priority 2012, dated 2016).
Where “and” joins values, the source holds several entries; their conditions need not be identical. Equal values may be shown once. Marks after values point to notes of the source that are not given here.

How the values were obtained:
Type in all cases: physicochemical
[1] = Initial solubility screening in water-miscible solvents (filtrate assayed by UV absorbance at 420.6 nm)
Experimental: (§1) Initial solubility screening tests were therefore carried out to determine the solubility of MTL-005 in various water-miscible solvents. The screening tests were carried out by dissolving the MTL-005 in the test solvent, filtering the resulting solution to remove any undissolved materials and assaying the filtrate by measuring the UV absorbance at 420.6 nm.

[2] = Solubility in mixtures of DMA and water
Experimental: as §1
In order to assess the suitability of DMA solutions of MTL-005 for administration by aqueous infusion, the solubility of MTL-005 in mixtures of DMA and water was assessed using the assay method described above.

Stability studies = test: Stability studies
[3] = Solubility in DMA/co-solvent mixtures
Experimental: as §1
According to the invention, water-miscible co-solvents are added to the DMA in order to improve the solubility of the MTL-005 when the formulation is diluted with water. Tests were therefore carried out to determine the solubility of MTL-005 in various DMA/co-solvent mixtures using the methods described above.
In the first series of tests, approximately 50 mg/ml MTL-005 was added to a range of cosolvent vehicles. A solubility in the region of 50 mg/ml was obtained for a range of vehicles (see results in column 1 in Table 3 below), therefore it could not be confirmed that saturated solutions were obtained. The work was therefore repeated at a higher MTL-005 loading of 150 mg/ml (see results in column 2 of Table 3).

- Total MTL-005 dissolved ([1]; solvent: Absolute ethanol): 0.089 mg/mL
- Total MTL-005 dissolved ([1]; solvent: Benzyl alcohol): 0.91 mg/mL
- Total MTL-005 dissolved ([1]; solvent: Cremophor EL 5% aq): 0.24 mg/mL
- Total MTL-005 dissolved ([1]; solvent: Cremophor EL 10% aq): 0.27 mg/mL
- Total MTL-005 dissolved ([1]; solvent: Cremophor EL 10% aq(heated)): 1.65 mg/mL
- Total MTL-005 dissolved ([1]; solvent: DMA 10% w/v aq): 0.13 mg/mL
- Total MTL-005 dissolved ([1]; solvent: DMA 10%, Cremophor EL 5% aq): 0.30 mg/mL
- Total MTL-005 dissolved ([1]; solvent: DMA diluted 1 in 10 with Solutol HS15 20% w/v aq): 1.44 mg/mL
- Total MTL-005 dissolved ([1]; solvent: Deionised water): 0.001 mg/mL
- Total MTL-005 dissolved ([1]; solvent: Glycofurol): 8.68 mg/mL
- Total MTL-005 dissolved ([1]; solvent: Macrogol 300): 2.60 mg/mL
- Total MTL-005 dissolved ([1]; solvent: N,N-Dimethylacetamide (DMA), result close to concentration in sample, solubility may be greater): 74.08* mg/ml
- Total MTL-005 dissolved ([1]; solvent: Polysorbate 20 (5% w/v aq)): 0.27 mg/mL
- Total MTL-005 dissolved ([1]; solvent: Polysorbate 20 (10% w/v aq)): 0.13 mg/mL
- Total MTL-005 dissolved ([1]; solvent: Polysorbate 20 (20% w/v aq)): 0.13 mg/mL
- Total MTL-005 dissolved ([1]; solvent: Polysorbate 20, result close to concentration in sample, solubility may be greater): 5.88* mg/ml
- Total MTL-005 dissolved ([1]; solvent: Polysorbate 80 5%, Cremophor EL 5% aq): 0.28 mg/mL
- Total MTL-005 dissolved ([1]; solvent: Polysorbate 80 5%, DMA 10% aq): 0.45 mg/mL
- Total MTL-005 dissolved ([1]; solvent: Polysorbate 80 5%, DMA 10%, Cremophor EL 5% aq): 0.35 mg/mL
- Total MTL-005 dissolved ([1]; solvent: Polysorbate 80 (5% w/v aq)): 0.15 mg/mL and 0.22 mg/mL
- Total MTL-005 dissolved ([1]; solvent: Polysorbate 80 (10% w/v aq)): 0.25 mg/mL
- Total MTL-005 dissolved ([1]; solvent: Polysorbate 80 (20% w/v aq)): 0.38 mg/mL
- Total MTL-005 dissolved ([1]; solvent: Propylene glycol): 0.019 mg/mL
- Total MTL-005 dissolved ([1]; solvent: Solutol HS15): 11.50 mg/mL
- Total MTL-005 dissolved ([1]; solvent: Solutol HS15 (5% w/v aq)): 0.08 mg/mL
- Total MTL-005 dissolved ([1]; solvent: Solutol HS15 (10% w/v aq)): 0.10 mg/mL
- Total MTL-005 dissolved ([1]; solvent: Solutol HS15 (20% w/v aq)): 0.16 mg/mL
- Total MTL-005 dissolved ([1]; solvent: Soyabean oil): 0.59 mg/mL
- Total MTL-005 dissolved ([1]; solvent: pH 7 Britton Robinson buffer): 0.0016 mg/mL
- Solubility ([2]; vehicle: 20% DMA/80% Water, 5 mg/ml added): <50 µg/mL
- Solubility ([2]; vehicle: 40% DMA/60% Water, 5 mg/ml added): <50 µg/mL
- Solubility ([2]; vehicle: 60% DMA/40% Water, 20 mg/ml added): <50 µg/mL
- Solubility ([2]; vehicle: 80% DMA/20% Water, 18 mg/ml added): <50 µg/mL
- Solubility ([2]; vehicle: 100% DMA, 92.5 mg/ml added): >90000 µg/mL
- Stability as a dry powder (Stability studies; dry powder): relatively stable as a dry powder
- Total MTL-005 dissolved (50 mg/ml added) ([3]; DMA 60%, Macrogol 300 40%): 34 mg/mL
- Total MTL-005 dissolved (50 mg/ml added) ([3]; DMA 60%, Propylene Glycol 40%): 4 mg/mL
- Total MTL-005 dissolved (50 mg/ml added) ([3]; DMA 60%, Solutol HS 40%, may not be saturated): 51 mg/mL
- Total MTL-005 dissolved (150 mg/ml added) ([3]; DMA 60%, Solutol HS 40%): 58 mg/mL
- Total MTL-005 dissolved (50 mg/ml added) ([3]; DMA 60%, Tetraglycol 40%, may not be saturated): 53 mg/mL
- Total MTL-005 dissolved (150 mg/ml added) ([3]; DMA 60%, Tetraglycol 40%): 94 mg/mL
- Total MTL-005 dissolved (50 mg/ml added) ([3]; DMA 60%, Tween 20 40%, may not be saturated): 47 mg/mL
- Total MTL-005 dissolved (150 mg/ml added) ([3]; DMA 60%, Tween 20 40%): 37 mg/mL
- Total MTL-005 dissolved (150 mg/ml added) ([3]; DMA 70%, Solutol HS 20%, Macrogol 300 10%): 74 mg/mL
- Total MTL-005 dissolved (150 mg/ml added) ([3]; DMA 70%, Solutol HS 30%): 70 mg/mL
- Total MTL-005 dissolved (50 mg/ml added) ([3]; DMA 80%, Macrogol 300 10%, Propylene Glycol 10%, may not be saturated): 48 mg/mL
- Total MTL-005 dissolved (50 mg/ml added) ([3]; DMA 80%, Macrogol 300 10%, Tetraglycol 10%, may not be saturated): 49 mg/mL
- Total MTL-005 dissolved (50 mg/ml added) ([3]; DMA 80%, Macrogol 300 20%, may not be saturated): 50 mg/mL
- Total MTL-005 dissolved (150 mg/ml added) ([3]; DMA 80%, Macrogol 300 20%): 76 mg/mL
- Total MTL-005 dissolved (50 mg/ml added) ([3]; DMA 80%, Propylene Glycol 20%): 27 mg/mL
- Total MTL-005 dissolved (50 mg/ml added) ([3]; DMA 80%, Solutol HS 10%, Macrogol 300 10%, may not be saturated): 49 mg/mL
- Total MTL-005 dissolved (150 mg/ml added) ([3]; DMA 80%, Solutol HS 10%, Macrogol 300 10%): 95 mg/mL
- Total MTL-005 dissolved (50 mg/ml added) ([3]; DMA 80%, Solutol HS 10%, Propylene Glycol 10%, may not be saturated): 50 mg/mL
- Total MTL-005 dissolved (150 mg/ml added) ([3]; DMA 80%, Solutol HS 10%, Propylene Glycol 10%): 58 mg/mL
- Total MTL-005 dissolved (50 mg/ml added) ([3]; DMA 80%, Solutol HS 10%, Tetraglycol 10%, may not be saturated): 49 mg/mL
- Total MTL-005 dissolved (150 mg/ml added) ([3]; DMA 80%, Solutol HS 10%, Tetraglycol 10%): 113 mg/mL
- Total MTL-005 dissolved (50 mg/ml added) ([3]; DMA 80%, Solutol HS 20%, may not be saturated): 49 mg/mL
- Total MTL-005 dissolved (150 mg/ml added) ([3]; DMA 80%, Solutol HS 20%): 115 mg/mL
- Total MTL-005 dissolved (50 mg/ml added) ([3]; DMA 80%, Tetraglycol 10%, Propylene Glycol 10%, may not be saturated): 50 mg/mL
- Total MTL-005 dissolved (50 mg/ml added) ([3]; DMA 80%, Tetraglycol 20%, may not be saturated): 52 mg/mL
- Total MTL-005 dissolved (150 mg/ml added) ([3]; DMA 80%, Tetraglycol 20%): 131 mg/mL
- Total MTL-005 dissolved (50 mg/ml added) ([3]; DMA 80%, Tween 20 10%, Macrogol 300 10%, may not be saturated): 50 mg/mL
- Total MTL-005 dissolved (150 mg/ml added) ([3]; DMA 80%, Tween 20 10%, Macrogol 300 10%): 83 mg/mL
- Total MTL-005 dissolved (50 mg/ml added) ([3]; DMA 80%, Tween 20 10%, Propylene Glycol 10%, may not be saturated): 49 mg/mL
- Total MTL-005 dissolved (150 mg/ml added) ([3]; DMA 80%, Tween 20 10%, Propylene Glycol 10%): 79 mg/mL
- Total MTL-005 dissolved (50 mg/ml added) ([3]; DMA 80%, Tween 20 10%, Solutol HS 10%, may not be saturated): 52 mg/mL
- Total MTL-005 dissolved (50 mg/ml added) ([3]; DMA 80%, Tween 20 10%, Tetraglycol 10%, may not be saturated): 48 mg/mL
- Total MTL-005 dissolved (150 mg/ml added) ([3]; DMA 80%, Tween 20 10%, Tetraglycol 10%): 101 mg/mL
- Total MTL-005 dissolved (50 mg/ml added) ([3]; DMA 80%, Tween 20 20%, may not be saturated): 51 mg/mL
- Total MTL-005 dissolved (150 mg/ml added) ([3]; DMA 80%, Tween 20 20%): 91 mg/mL
Substance: Copper meso-5,15-bis[3-[(1,2-dicarba-closo-dodecaboranyl)-methoxy]-phenyl]-meso-10,20-dinitroporphyrin [MTL-005]
- Stability in solution (Stability studies; in solution): not stable for extended periods in solution
